Experimental findings from publication PMC3654553, “A PPARγ ligand present in Actinidia fruit (Actinidia chrysantha) is identified as dilinolenoyl galactosyl glycerol” (Bioscience Reports, 2013) are described below.

For assay [1], the target named is T1, PPARγ (peroxisome-proliferator-activated receptor γ) (Homo sapiens, UniProt P37231).
T1 construct: gene PPARG
T1 sequence (P37231 231-505 limits assumed): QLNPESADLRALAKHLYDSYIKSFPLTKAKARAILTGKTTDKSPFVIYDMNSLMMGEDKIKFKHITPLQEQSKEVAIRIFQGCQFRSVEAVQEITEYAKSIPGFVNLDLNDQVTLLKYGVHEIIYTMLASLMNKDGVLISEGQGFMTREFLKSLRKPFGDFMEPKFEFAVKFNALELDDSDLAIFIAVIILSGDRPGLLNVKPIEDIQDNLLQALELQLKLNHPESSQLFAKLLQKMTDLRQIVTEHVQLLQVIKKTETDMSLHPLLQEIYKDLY
Nature of the assay: competitive fluorescence polarization (PolarScreen PPARγ green), time course; intact protein ESI-MS shows no covalent adduct. Format: binding. Background: Fluorescence polarisation rises when a labelled molecule tumbles more slowly, as on binding a larger partner.

Assay [2] deals with T1, PPARγ (peroxisome-proliferator-activated receptor γ).
For assay [3] the target is unchanged. Nature of the assay: competitive fluorescence polarization of HPLC fraction […], dilution series and time course. The format is binding.

`CC/C=C\C/C=C\C/C=C\CCCCCCCC(=O)OC[C@H](CO[C@@H]1O[C@H](CO)[C@H](O)[C@H](O)[C@H]1O)OC(=O)CCCCCCC/C=C\C/C=C\C/C=C\CC` [compound 11, DLGG]: the IC50 in assay [1] turned out to be 1640 nM.
Regarding `CC/C=C\C/C=C\C/C=C\CCCCCCCC(=O)O` [compound 5, α-linolenic acid], the “competitive fluorescence polarization of HPLC fraction 5, dilution series” value in assay [2] is “α-linolenic acid and linoleic acid bind to PPARγ immediately under the assay conditions used”.
Consider `CCCCC/C=C\C/C=C\CCCCCCCC(=O)O` [compound 6, linoleic acid], for which, in assay [3], the “competitive fluorescence polarization of HPLC fraction 6, dilution series and ti” value is “α-linolenic acid and linoleic acid bind to PPARγ immediately under the assay conditions used”.

By IC50 is commonly meant the point on the concentration scale where inhibition reaches its midpoint. A high value points to weaker potency in that assay.
